{"source": "patent US6262021A", "about": "“Use of substances having oxytocin activity for preparation of medicaments for wound healing” (EntreTech Medical AB, priority 1997, dated 2001)", "key": {"[1]": {"test_system": "full-thickness dermal excisional wounds", "test": "Wound healing in diabetic mice after administration of oxytocin (Test 2)", "assay_type": "in vivo, C57BL/Ks-db/db diabetic mice", "excerpt": "For studying the effects of cutaneous wound-healing agents on chronic non-healing dermal ulcers the mutant C57BL/Ks-db/db diabetic mouse has emerged as a potentially relevant healing-impaired model. These homozygous genetically diabetic mice develop obesity and hyper-glycemia that is resistant to insulin, analogous to human type II diabetes. They also show signs of diabetes such as excessive drinking and urination and greatly elevated urinary glucose levels. […] Previous studies have used this model to evaluate formulations of aFGF.\nFemale C57BL/Ks-db/db diabetic mice, 11 weeks old, were obtained from Jackson Laboratories (Bar Harbor, Me.). The mice were housed in sterile microisolator boxes (four per box) with sterile water and bedding and were kept in a semi-barrier quarantine facility. Supplemental heat was provided with electric heating pads under half of each box after wounding to prevent hypothermia and reduce mortality.\nMice were anesthetized with intraperitoneal injections of 110 mg ketamine and 9 mg xylazine per kg of body weight. The mid-back and thoracic skin was shaved and disinfected with a 2% Chlorhexidine surgical scrub, followed by 70% ethanol. A template 1.6 cm in diameter was used to mark a 2.0 cm^2 circle on the mid-dorsal area, and a single full-thickness wound was created by blunt excision with sterile curved iris scissors. […] All surgical and subsequent healing analysis procedures were performed in a laminar flow hood using full aseptic techniques. Doses were administrated on 5 consecutive days before, and on day 0, 3 and 7 after injury. Oxytocin was administrated at different doses, 0.001, 0.01, 0.1, 1.0, 10.0 and 100.0 μg/cm^2 , respectively, to groups of 16 mice per dose. The wounds were covered with a semitransparent Bioclusive dressing (Johnson & Johnson Products, New Brunswick, N.J.) for protection, maintenance of a moist environment and prevention of crust formation. Wound fluid samples were taken at day 10 after injury and cultured for aerobic and anaerobic microorganisms.\nWound appearances were recorded photographically and their perimeters were traced onto sterile glass slides applied directly to the exposed wound surfaces after pre-wetting with a drop of sterile physiologic saline. Measurements were made immediately after wounding and twice weekly thereafter until the wounds were completely closed. Wound areas and perimeters were determined from the glass-slide tracings using computerized image analysis. Statistical significances of differences between groups were evaluated using an unpaired two-tailed Student t-test.\nHealing expressed as a decrease in percent initial area was converted to linear ingrowth from the wound edges by dividing the differences in wound areas by the average wound perimeters at sequential time intervals. Total ingrowth at a specific time is the sum of the incremental ingrowth distances up until that time. This transformation linearized closure as a function of time, thereby allowing expression of healing as kinetic rates that were constant over time.\nWounds, examined twice weekly to monitor time to total closure, were considered fully healed when moist granulation tissue was no longer apparent, indicating a functional epidermal water-permeability barrier. Closure was also confirmed histologically. Time-point comparisons of the fraction of healed versus unhealed wounds were analyzed by the X^2 statistic with Yates correction, and group comparisons of absolute days to total closure for individual animals were analyzed by an unpaired two-tailed Student t-test."}, "FGF-1": {"test_system": "FGF-1", "test": "Concentration of FGF in skin biopsies from the injured area of diabetic mice", "assay_type": "in vivo, C57BL/Ks-db/db diabetic mice", "conditions": "10 μg/cm^2 oxytocin; skin biopsies 7 days after injury; ten mice; p<0.001", "experimental": "The concentration of FGF was compared in skin biopsies taken from the injured area (\"ulcer\") of ten mice treated with 10 μg/cm^2 oxytocin and ten mice treated with PBS 7 days after injury. […] This increase in concentration was highly significant (p<0.001) and strongly support the hypothesis that oxytocin increases wound healing through an increased expression and synthesis of FGF-1."}, "musculocutaneous flaps": {"test_system": "musculocutaneous flaps", "test": "Survival of musculocutaneous flaps in rats after administration of oxytocin (Test 1)", "assay_type": "in vivo, rats (Sprague-Dawley)", "conditions": "1 mg/kg s.c. 24 h and 1 h before and 24 h after operation; estimated six days after operation; oxytocin p<0.05, antagonist no significance p=0.13", "excerpt": "An established model of wound healing is to investigate the survival of musculocutaneous flaps in rats. In plastic surgery, reconstructive problems are often solved by surgical flaps. The main disadvantage of surgical flaps has been their tendency to develop ischemia and eventually necrosis of the distal part. This complication can in the end ruin what postoperatively seemed to be an excellent result. Much research has been devoted to explain the mechanisms of surgical skin flap survival and how to prevent and reverse established ischemia.\nThe aim of this study was to investigate the effects of oxytocin on the survival of musculocutaneous flaps in rats.\n71 female albino rats (Sprague-Dawley, weight 180-220 g) were anaesthetized with chloralhydrate (0.4 g/kg), shaved on the back and a dorsal cranially based standard flap (2×7 cm) was elevated and then sutured back in position. The flap was raised from the deep fascia of muscle and included the superficial fascia, panniculus carnosus, subcutaneous tissue and skin. 24 h and 1 h before operation, respectively, as well as 24 h after operation the rats were treated with 1 mg/kg oxytocin s.c. (n=20), an oxytocin antagonist, that is 1-deamino-2-D-Tyr-(OEt)-4-Thr-8-Orn-oxytocin in an amount of 1 mg/kg (n=15), with 1 mg/kg of said oxytocin antagonist and then after 30 minutes with 1 mg/kg oxytocin (n=16), or with saline (n=20). […]"}, "central α2 -receptors": {"test_system": "central α2 -receptors", "test": "Activity of central α2-receptors after oxytocin", "assay_type": "in vivo", "conditions": "rats; by way of a central action", "excerpt": "Experiments have shown that oxytocin by way of a central action increases the activity of the central α2 -receptors in rats. These receptors have an inhibitory action and counteracts the activating aspects of noradrenalin in the brain which are mainly mediated via α1 -receptors, which activate cyclic AMP. When α2 -receptor stimulation dominates over α1 -receptor stimulation, activity is exchanged by relaxation and energy is shunted towards growing and healing, i.e. is not used for stress or muscular contraction and activity. As a consequence parasympathetic nerve tone dominates over sympathetic nervous tone and the musculature is relaxed. It can be presumed that oxytocin exerts a similar effect also in humans. During breast feeding--a situation characterized by repetitive oxytocin secretion--all the effects observed in experimental animals following repeated oxytocin administration are seen. It is not known how the effect by oxytocin on α2 -receptors is mediated, but probably not by a classical oxytocin receptor mediated effect."}, "NGF": {"test_system": "NGF", "conditions": "intravenous injection, female rats; cited from earlier work"}}}
{"smiles": "CC[C@H](C)[C@@H]1NC(=O)[C@H](Cc2ccc(O)cc2)NC(=O)[C@@H](N)CSSC[C@@H](C(=O)N2CCC[C@H]2C(=O)N[C@@H](CC(C)C)C(=O)NCC(N)=O)NC(=O)[C@H](CC(N)=O)NC(=O)[C@H](CCC(N)=O)NC1=O", "note": "[oxytocin]", "values": [{"measurement": "healing rates over paired vehicle controls", "setting": "[1]; 0.001 μg/cm^2, 0.01 μg/cm^2 and 0.1 μg/cm^2 doses", "value": "ineffective"}, {"measurement": "linear rate of healing from the wound edges", "setting": "[1]; 10 μg/cm^2, all time intervals, p≤0.01", "value": "increased"}, {"measurement": "enhancement of the healing rate of treated wounds", "setting": "[1]; 10 μg/cm^2, as early as day 7 after injury and throughout the test period, p≤0.01", "value": "Statistically significant enhancements"}, {"measurement": "total closure (fraction of wounds closed)", "setting": "[1]; 10 μg/cm^2, by day 14, p≤0.05", "value": "increases"}, {"measurement": "decrease in wound size in treated mice compared with PBS/heparin vehicle", "setting": "[1]; 10 μg/cm^2, day 14", "value": 10, "unit": "fold"}, {"measurement": "maximum difference in percent of initial area between oxytocin and vehicle-treated wounds", "setting": "[1]; 10 μg/cm^2, from 14 d after injury", "value": 50, "unit": "%"}, {"measurement": "mean linear healing rate", "setting": "[1]; 10 μg/cm^2, vehicle-treated group 0.18 mm/d, p≤0.01", "value": 0.45, "unit": "mm/d"}, {"measurement": "decrease of time to total closure", "setting": "[1]; 0.001-μg/cm^2 and 0.01 μg/cm^2 doses", "value": "ineffective"}, {"measurement": "time required for wounds to close completely", "setting": "[1]; 1 to 100 μg/cm^2 per dose", "value": "significantly reduced"}, {"measurement": "wounds closed sooner than respective vehicle controls", "setting": "[1]; dose range 1.0 to 10.0 μg/cm^2", "value": "approximately 10 d"}, {"measurement": "wound closure compared with vehicle control", "setting": "[1]; three doses of 10 μg per cm^2 initial wound area during first week after wounding, topical", "value": "substantially faster"}, {"measurement": "median time to complete closure", "setting": "[1]; three doses of 10 μg/cm^2 during first week after injury, vehicle 52 d, p≤0.0001", "value": 23, "unit": "days"}, {"measurement": "healing rates over paired vehicle controls", "setting": "[1]; three topical applications, 1 to 100 μg/cm^2 per dose, first week after injury", "value": "significant dose-related increases"}, {"measurement": "FGF-1 synthesized, increase compared to PBS vehicle treated mice", "setting": "FGF-1", "value": 162, "unit": "%"}, {"measurement": "survival of the flaps compared to the saline-treated controls", "setting": "musculocutaneous flaps", "value": "significantly higher"}, {"measurement": "activity of the central α2 -receptors", "setting": "central α2 -receptors", "value": "increases"}, {"measurement": "hypothalamic levels of NGF", "setting": "NGF", "value": "increase"}]}
